This is an account of results in publication PMC9410537, “Discovery of Ircinianin Lactones B and C—Two New Cyclic Sesterterpenes from the Marine Sponge Ircinia wistarii” (Marine Drugs, 2022).

In series [1] the test system is T. cruzi Tulahuen strain C2C4. Briefly: Activity against T. cruzi in L-6 cells (beta-galactosidase/CPRG). Type of series: cell-based, Trypanosoma cruzi. Conditions: in vitro, Tulahuen C2C4 in L-6 cells, Table 2 values are means of two independent assays. The method, then:
Activity against T. cruzi. Rat skeletal myoblasts (L-6 cells) were seeded in 96-well microtiter plates at 2000 cells/well in 100 μL RPMI 1640 medium with 10% FBS and 2 mM L-glutamine. After 24 h, the media in each well was removed and replaced with 100 μL of fresh media containing 5000 trypomastigote forms of T. cruzi Tulahuen strain C2C4 containing the β-galactosidase (lacZ) gene. After 48 h, the media was removed from the wells again, and this time, replaced by 100 μL fresh medium with or without 1 from 100 to 0.002 μg/mL. After 96 h of incubation, the plates were inspected under an inverted microscope to assess growth and sterility of the controls. Then, the substrate CPRG/Nonidet (50 μL) was added to all wells. A color reaction developed within 2–6 h and could be read photometrically at 540 nm.

For series [2], the system named is L. donovani strain MHOM/ET/67/L82 axenic amastigotes. Briefly: Activity against L. donovani axenic amastigotes (resazurin). As to conditions: Leishmania donovani, in vitro, Table 2 values are means of two independent assays. Type of series: cell-based, Leishmania donovani. On the procedure: Activity against L. donovani axenic amastigotes. Amastigotes of L. donovani strain MHOM/ET/67/L82 were grown in axenic culture at 37 °C in SM medium at pH 5.4 supplemented with 10% heat-inactivated fetal bovine serum under an atmosphere of 5% CO2 in air. 100 µL of culture medium with 10^5 amastigotes from axenic culture with or without a serial drug dilution were seeded in 96-well microtiter plates. Serial drug dilutions ranged from 100 to 0.002 μg/mL. After 70 h of incubation, the plates were inspected under an inverted microscope to assure growth of the controls and sterile conditions.
(In general: Resazurin is reduced to fluorescent resorufin, in cell work by metabolically active cells.)

The test system of series [3] is set of clinically relevant bacteria (ESKAPE panel and one mycobacterial strain). In words: Antibacterial assay (MIC), whole strain panel. As to conditions: highest concentration tested. Type of series: cell-based. On the procedure: The minimal inhibitory concentration (MIC) was determined as described previously in cation-adjusted Mueller-Hinton medium according to the standards and guidelines of the Clinical and Laboratory Standards Institute. […] After an overnight incubation at 37 °C, the MIC was read as the lowest compound concentration preventing visible bacterial growth. The strain panel included representative species of nosocomial pathogens, known as “[…]” bacteria. Specifically, the following strains were used: Enterococcus faecium BM 4147-1, Staphylococcus aureus ATCC 29213, Klebsiella pneumoniae ATCC 12657, Acinetobacter baumannii 09987, Pseudomonas aeruginosa ATCC 27853, and Enterobacter aerogenes ATCC 13048. Bacillus subtilis 168, Escherichia coli ATCC 25922, and Mycobacterium smegmatis mc^2 155 ATCC 700084 were used as further reference strains.

In series [4] the test system is Severe Acute Respiratory Syndrome Corona Virus type 2 (SARS-CoV-2). Type of series: cell-based. As to conditions: up to the highest concentration tested (10 µM), CaCo2 cells.
Series [5] deals with panel comprising 60 human cancer cell lines. In words: One dose NCI-60 cell-line cytotoxicity screen. Type of series: cell-based. Conditions: single high dose. An excerpt:
One dose NCI-60 panel: 1 was selected for the anticancer drug screening service as a part of the Developmental Therapeutics Program at the National Cancer Institute (NCI). In vitro tumor growth inhibitory effects were explored using a standard protocol with a single high dose test against a panel comprising 60 human cancer cell lines. It is noteworthy to mention that we had to remove the results of the NCI-H23 cell line, since NCI informed us that its cell line’s identity was not authenticated during the time frame in which the screening of 1 was conducted.

In series [6] the test system is HeLa human cervical carcinoma cell line. Briefly: In vitro cytotoxicity assay with HeLa cells (resazurin). The series is classed as cell-based. On the procedure:
In vitro cytotoxicity assay with HeLa cells: The cytotoxicity test against the HeLa human cervical carcinoma cell line was performed as described previously in RPMI cell culture medium supplemented with 10% fetal bovine serum using the 7-hydroxy-3H-phenoxazin-3-one-10-oxide (resazurin) assay. Briefly, a 2-fold serial dilution of the test compounds was prepared in duplicates in a microtiter plate and seeded with trypsinized HeLa cells to a final cell concentration of 1 × 10^4 cells per well. After 24 h of incubation at 37 °C, with 5% CO2 and 95% relative humidity, resazurin was added at a final concentration of 200 μM, and cells were again incubated overnight. Cell viability was assessed by determining the reduction of resazurin to the fluorescent resorufin. Fluorescence was measured in a TECAN Infinite M200 reader at an excitation wavelength of 560 nm and an emission wavelength of 600 nm in relation to an untreated control.

In a further series the test system is Ciona savignyi larvae. In words: Marine antifouling assay, larval settlement and metamorphosis. Conditions: up to the highest concentration tested (100 µg/mL), 5 days. On the procedure: (§1) Antifouling activity was assessed via inhibition of settlement and metamorphosis of larvae of the Pacific transparent sea squirt (Ciona savignyi) and the blue mussel (Mytilus galloprovincialis). Methods followed those published by Grant et al.. Adults of both species were collected from coastal populations in the Nelson region of New Zealand, held in a recirculating seawater system (18 ± 1 °C, 33 ± 1 PSU) and fed bulk-cultured Isochorysis galbana until ready to spawn. Larval spawning and rearing procedures followed previously described methods for C. savignyi and M. gallorprovincialis. Competent larvae were diluted in artificial seawater to yield 3 ± 1 larvae/mL. Aliquots of these larval suspensions were added to 12-well tissue culture plates (Corning Co-Star) containing serial dilutions of 1 ranging from 0.1–100 µg/mL. Controls were included, and three replicates were performed in all cases. After 5 days of incubation at 18 ± 1 °C, the number of successfully settled and metamorphosed individuals were counted in each well. Sigmoidal dose-response relationships were explored using R Statistical Software to determine whether inhibition had occurred relative to the controls.

Series [7] deals with Mytilus galloprovincialis larvae. The description is as above. As to conditions: up to the highest concentration tested (100 µg/mL), 5 days. The method, then: as §1
Series [8] deals with Trypanosoma brucei rhodesiense STIB900. In words: Activity against Trypanosoma brucei rhodesiense STIB900 (resazurin). As to conditions: Table 2 values are means of two independent assays.
Description: Activity against Trypanosoma brucei rhodesiense STIB900. […] Minimum Essential Medium (50 µL) supplemented with 25 mM HEPES, 1 g/L additional glucose, 1% MEM non-essential amino acids (100×), 0.2 mM 2-mercaptoethanol, 1 mM Na-pyruvate and 15% heat inactivated horse serum was added to each well of a 96-well microtiter plate. Serial drug dilutions ranging from 100 to 0.002 μg/mL were prepared. Then, 4 × 10^3 bloodstream forms of T. b. rhodesiense STIB 900 in 50 µL were added to each well and the plate was incubated at 37 °C under a 5% CO2 atmosphere for 70 h. 10 µL of a resazurin solution (resazurin, 12.5 mg in 100 mL double-distilled water) was then added to each well and incubation continued for a further 2–4 h [70]. The plates were read with a Spectramax Gemini XS microplate fluorometer (Molecular Devices Cooperation, Sunnyvale, CA, USA) using an excitation wavelength of 536 nm and an emission wavelength of 588 nm. Data were analyzed using Softmax Pro (Molecular Devices Cooperation, Sunnyvale, CA, USA), which calculated IC50 values by linear regression [71] and 4-parameter logistic regression from the sigmoidal dose inhibition curves.

pIC50: −log10 of the molar value. Where two headings read alike, the source gives them in different places. Bounds are passed on as bounds.

One may read the pIC50 as the IC50 on a negative log10 scale, so that one unit is a factor of ten. By MIC is commonly meant the lowest concentration found to suppress growth. A low value points to a more susceptible organism. In general, IC50 refers to the concentration at which inhibition is half-maximal. The low end stands for greater potency in that assay, the high end for weaker potency in that assay. With `CC1=C[C@@H](/C=C(\C)CCCc2ccoc2)[C@]2(OC(=O)C(C)=C2O)[C@@H]2[C@@H](C)CC[C@@H]12` [compound 1, Ircinianin], the negative-log IC50 (pIC50) in [1] was less than 4.10; in series [1] (listed as Ircinianin (1)), 3.72; in series [2], 4.78; in series [8] (Trypanosoma brucei, RHODESIENSE|STIB900, read-out: IC50 T. brucei rhodesiense, in vitro, STIB900 bloodstream forms), less than 4.10; in [8] (read-out: IC50 T. brucei rhodesiense, in vitro, STIB900 bloodstream forms, listed as Ircinianin (1)) it was 4.08. For the same compound, the MIC in series [3] is greater than 32 µg/mL. The “Inhibition of SARS-CoV-2 infection” value in [4] is recorded as “no inhibition”. In series [5], the “Activity in NCI 60 cell-line cytotoxicity screen” value was “no activity”. In series [6], this compound came in with a concentration for half-maximal inhibition (IC50) greater than 64 µg/mL. The “Inhibitory effect on larval settlement and metamorphosis” value (with Ciona savignyi larvae; in series [7]) was “inactive” in each case.
